Data from patent US7070814B2, “Bioavailability / bioefficacy enhancing activity of Cuminum cyminum and extracts and fractions thereof” (Council of Scientific and Industrial Research, priority 2002, dated 2006).

Assay: Bioavailability enhancement: drug, nutraceutical or herbal product given alone or with bioenhancer (BE) to fasted rats, blood (plasma) levels 0-24 hrs by HPLC
Details: drug + BE from Cuminum cyminum (extract 16 mg/kg or fraction, rats) vs drug alone
Description: • 1. Bioenhancers (BEs) from Cuminum cyminum means either the aqueous, or 50% alcoholic extract or fractions No. 1 to 5. • 2. Piperine as Bioenhancer (BE) from Piper species means the molecule with characteristics as described in Example 2 of this invention. • 3.
• (i) Bioenhancer (BE) from Cuminum cyminum • Extract: 16 mg/kg body weight (Rats) • Fraction No. 1: 02–5 mg/kg body weight (rats) • Fraction No.2: 13-mg/kg body weight (Rats) • Fraction No. 3: 8 mg/kg body weight (Rats) • Fraction No. 4: 5 mg/kg body weight (Rats) • Fraction No. 5: 2.5 to 5 mg/kg body weight (Rats) • (ii) Piperine: 8 mg/kg body weight (Rats) As an example of an experiment in Rat (fasted): • Drug: Rifampicin, 40 mg/kg • BE (Cuminum cyminum): Doses as in Example No. 5 above. • BE (Cuminum cyminum)+Piperine: Doses as in Example No. 5 above.
Experimental procedure: Drug alone/or in combination with BE was administered to rats as per the following design: • Group 1: Control • Group 2: Rifampicin alone • Group 3: BE alone • Group 4: Rifampicin+BE (Cuminum cyminum) • Group 5: Rifampicin+BE (C. cyminum+piperine)
Blood from control/treated animals at predetermined intervals (0–24 hrs) (Total 14 timings). Rifampicin was extracted from the blood (plasma) using dichloromethane. The concentration of rifampicin in the samples was determined using HPLC (Model: Shimadzu 1080 BP); PDA detector; Mobile phase: phosphate buffer: acetonitile (40:60); Flow rate 1.0 ml/min. Column RP 18.
Control and BE only groups were employed to study the interference of plasma component and the bioenhancer used.
List of drugs, nutraceuticals, herbal formulations cited below as some of the example for the purpose of present invention.

SMILES	% Enhancement in bioavailability, BE from Cuminum cyminum [%]
Cc1nnc2n1-c1ccc(Cl)cc1C(c1ccccc1)=NC2 [Alprazolam]	60

Same assay, conditions: drug + piperine (8 mg/kg, rats) vs drug alone

SMILES	% Enhancement in bioavailability, Piperine as BE [%]
Cc1nnc2n1-c1ccc(Cl)cc1C(c1ccccc1)=NC2 [Alprazolam]	98

Same assay, conditions: drug + piperine + active molecule (rats) vs drug alone

SMILES	% Enhancement in bioavailability, Piperine + Active molecule [%]
Cc1nnc2n1-c1ccc(Cl)cc1C(c1ccccc1)=NC2 [Alprazolam]	104

Same assay, conditions: rat, in vivo

SMILES	% Enhancement in bioavailability, Piperine + Active molecule	% Enhancement in bioavailability, Piperine + BE from Cuminum cyminum
Cc1cn([C@H]2C[C@H](N=[N+]=[N-])[C@@H](CO)O2)c(=O)[nH]c1=O [Zidovudine]	415%	
Nc1nc2c(ncn2COCCO)c(=O)[nH]1 [Acyclovir]	98%	
NCCCC[C@H](N[C@@H](CCc1ccccc1)C(=O)O)C(=O)N1CCC[C@H]1C(=O)O [Lisinopril]	98%	
CC(C)(C)NCC(O)c1ccc(O)c(CO)c1 (stereo not shown) [Salbutamol]	85%	
Cc1onc(-c2ccccc2Cl)c1C(=O)N[C@@H]1C(=O)N2[C@@H]1SC(C)(C)[C@@H]2C(=O)O [Cloxacillin]	95%	
CCn1cc(C(=O)O)c(=O)c2cc(F)c(N3CCNCC3)cc21 [Norfloxacin]	Negligible	
NC(=O)c1cnccn1 [Pyrazinamide]	Nil	
CO[C@H]1/C=C/O[C@@]2(C)Oc3c(C)c(O)c4c(O)c(c(/C=N/N5CCN(C)CC5)c(O)c4c3C2=O)NC(=O)/C(C)=C\C=C\[C@H](C)[C@H](O)[C@@H](C)[C@@H](O)[C@@H](C)[C@H](OC(C)=O)[C@@H]1C [Rifampicin]	366%	
CS(=O)(=O)c1ccc(C2=C(c3ccccc3)C(=O)OC2)cc1 [Rofecoxib]	Negligible	
CN(Cc1cc(Br)cc(Br)c1N)C1CCCCC1 [Bromhexine]	90%	
CC1=C(C(=O)O)N2C(=O)[C@@H](NC(=O)[C@H](N)c3ccc(O)cc3)[C@H]2SC1 [Cefadroxil]		79%
O=c1[nH]cc(F)c(=O)[nH]1 [5-Fluorouracil]	435%	
CN/C(=N/CCSCc1nc[nH]c1C)NC#N [Cimetidine]		105%
CCOC(=O)C1=C(COCCN)NC(C)=C(C(=O)OC)C1c1ccccc1Cl (stereo not shown) [Amlodipine]	103%	
CC1(C)S[C@@H]2[C@H](NC(=O)[C@H](N)c3ccc(O)cc3)C(=O)N2[C@H]1C(=O)O [Amoxycillin]	98%	
CO/N=C(\C(=O)N[C@@H]1C(=O)N2C(C(=O)O)=C(CSc3nc(=O)c(O)nn3C)CS[C@H]12)c1csc(N)n1 [Cefatrioxone]		Nil
Nc1ccc(S(=O)(=O)c2ccc(N)cc2)cc1 [Dapsone]	75%	
CCc1cc(C(N)=S)ccn1 [Ethionamide]	65%	
CC1COc2c(N3CCN(C)CC3)c(F)cc3c(=O)c(C(=O)O)cn1c23 (stereo not shown) [O-floxacin, Ofloxacin]	73%	
CN1C(C(=O)Nc2ccccn2)=C(O)c2ccccc2S1(=O)=O [Piroxicam]	107%	

SMILES	% Enhancement in bioavailability, Piperine + Active molecule	% Enhancement in bioavailability, Piperine + BE from Cuminum cyminum
CC[C@H]1OC(=O)[C@H](C)[C@@H](O[C@H]2C[C@@](C)(OC)[C@@H](O)[C@H](C)O2)[C@H](C)[C@@H](O[C@@H]2O[C@H](C)C[C@H](N(C)C)[C@H]2O)[C@](C)(O)C[C@@H](C)CN(C)[C@H](C)[C@@H](O)[C@]1(C)O [Azithromycin]	97%	
CC(=O)N1CCN(c2ccc(OCC3COC(Cn4ccnc4)(c4ccc(Cl)cc4Cl)O3)cc2)CC1 (stereo not shown) [Ketoconazole]	156%	
Cn1c(=O)c2[nH]cnc2n(C)c1=O [Theophylline]	75%	
C=CC[C@@H]1/C=C(\C)C[C@H](C)C[C@H](OC)[C@H]2O[C@@](O)(C(=O)C(=O)N3CCCC[C@H]3C(=O)O[C@H](/C(C)=C/[C@@H]3CC[C@@H](O)[C@H](OC)C3)[C@H](C)[C@@H](O)CC1=O)[C@H](C)C[C@@H]2OC [Tacrolimus]	117%	
COc1cccc2c1C(=O)c1c(O)c3c(c(O)c1C2=O)C[C@@](O)(C(=O)CO)C[C@@H]3O[C@H]1C[C@H](N)[C@H](O)[C@H](C)O1 [Doxorubicin]	103%	
CC[C@@H](CO)NCCN[C@@H](CC)CO [Ethambutol]	Nil	
CC[C@H]1OC(=O)[C@H](C)[C@@H](O[C@H]2C[C@@](C)(OC)[C@@H](O)[C@H](C)O2)[C@H](C)[C@@H](O[C@@H]2O[C@H](C)C[C@H](N(C)C)[C@H]2O)[C@](C)(O)C[C@@H](C)/C(=N\OCOCCOC)[C@H](C)[C@@H](O)[C@]1(C)O [Roxythromycin]	103%	
C=CC1=C(C(=O)O)N2C(=O)[C@@H](NC(=O)/C(=N\OCC(=O)O)c3csc(N)n3)[C@H]2SC1 [Cefixime]		Nil
O=C(O)Cc1ccccc1Nc1c(Cl)cccc1Cl [Diclofenac]	108%	
CNC(=C[N+](=O)[O-])NCCSCc1ccc(CN(C)C)o1 [Ranitidine]		89%
COc1c(C)c2c(c(O)c1C/C=C(\C)CCC(=O)OCCN1CCOCC1)C(=O)OC2 [Mycophenolate Mofeit, Mycophenolate mofetil]	Nil	
COc1ccc2[nH]c([S+]([O-])Cc3ncc(C)c(OC)c3C)nc2c1 (stereo not shown) [Omeprazole]		Nil
CS(=O)(=O)Nc1ccc([N+](=O)[O-])cc1Oc1ccccc1 [Nimesulide]	150%	
CC(C)NCC(O)COc1cccc2ccccc12 (stereo not shown) [Propranolol]	210%	
NNC(=O)c1ccncc1 [Isoniazid]	Negligible	
CC[C@H]1OC(=O)[C@H](C)[C@@H](O[C@H]2C[C@@](C)(OC)[C@@H](O)[C@H](C)O2)[C@H](C)[C@@H](O[C@@H]2O[C@H](C)C[C@H](N(C)C)[C@H]2O)[C@](C)(O)C[C@@H](C)C(=O)[C@H](C)[C@@H](O)[C@]1(C)O [Erythromycin]	95%	
CN(Cc1cnc2nc(N)nc(N)c2n1)c1ccc(C(=O)N[C@@H](CCC(=O)O)C(=O)O)cc1 [Methotrexate]	30%	
N[C@@H]1CON=C1O [Cycloserine]	90%	
NCC[C@H](O)C(=O)N[C@@H]1C[C@H](N)[C@@H](O[C@H]2O[C@H](CN)[C@@H](O)[C@H](O)[C@H]2O)[C@H](O)[C@H]1O[C@H]1O[C@H](CO)[C@@H](O)[C@H](N)[C@H]1O [Amikacin]	Nil	
O=C(CCCN1CCC(O)(c2ccc(Cl)cc2)CC1)c1ccc(F)cc1 [Haloperidol]	Nil	
